# From US20030216569A1, “Method of making HIV protease inhibitors” (priority 1993, published 2003)
# Biological target: HIV-1 protease (Human immunodeficiency virus type 1 group M subtype B, UniProt P04585)
# Assay: Fluorescence HIV-1 Protease Inhibitor Assay (Pandex)
# Format: biochemical
# Parameters: made in house; host or cells: E. coli K12 L507/pHP10D (NRRL B-18560)
# Details: for IC50: read-out: Fluorescence Assay IC50 in ng/mL (converted)
# Method: A. Preparation of Protease and Gag Fractions
# Lyophils of E. coli K12 L507/pHP10D were obtained from the Northern Regional Research Laboratory, Peoria, Ill. 61604, under the accession number NRRL B-18560 (deposited Nov. 14, 1989). The lyophils were decanted into tubes containing 10 ml LB medium (10 g Bacto-tryptone, 5 g Bacto-yeast extract, and 10 g aqueous sodium chloride per liter; the pH was adjusted to 7.5 and incubated at 32° C. overnight).
# A small portion of the overnight culture was placed on LB-agar (LB medium with 15 g/L Bacto-agar) plates containing 12.5 micrograms/ml tetracycline in a manner so as to obtain a single colony isolate of E. coli K12 L507/pHP10D. The single colony obtained was inoculated into 10 ml of LB medium containing 12.5 micrograms/ml tetracycline and incubated overnight at 32° C. with vigorous shaking. The 10 ml overnight culture was inoculated into LB medium containing 12.5 micrograms/ml tetracycline and incubated at 32° C. with vigorous shaking until the culture reached mid-log phase. […]
# 3. Preparation of Protease Fraction
# A culture of E. coli K12 L507/pHP10D was grown to mid-log phase at 32° C. in LB media containing 12.5 micrograms/ml tetracycline. The cultivation temperature was quickly elevated to 40° C. to induce gene expression, and the cells were allowed to grow for 2.5 hours at this temperature before the culture was quickly chilled on ice. The cells were centrifuged and the cell pellet was resuspended in 20 ml of 50 mmol MES buffer (pH 6.0) containing 1 mmol EDTA, 1 mmol DTT, 1 mmol PMSF and 10% glycerol (“Buffer A”). Cells were lysed by sonication using a Fischer Model 300 Dismembrator and a microtip probe. Following centrifugation at 27,000×g, the supernatant was diluted to a total volume of 60 ml with Buffer A and loaded onto a 2.0×19 cm QAE-Sepharose column (1 ml/min, 4° C.), that had been equilibrated in Buffer A. The column was washed isocratically for 180 min and then eluted with a gradient eluent of […] aqueous sodium chloride in Buffer A over 120 min. Enzymatic activity was measured by HPLC using the synthetic peptide Ser-Gln-Asn-Tyr-Pro-Ile-Val as described in Margolin et al., Biochem. Biophys. Res. Commun., 167, 554-560 (1990); the production of the p1 peptide (Ser-Gln-Asn-Tyr) was measured.
# The active fractions were combined, adjusted to […] 1.2M in ammonium sulfate, and applied to a 2.0×18 cm hexyl agarose column that had been equilibrated in Buffer A containing 1.2M ammonium sulfate. The sample was loaded at a flow rate of 1 ml/min at 4° C., washed with the equilibration buffer for 240 min (1 ml/min) and then eluted using a reverse linear gradient of 1.2-0M ammonium sulfate in Buffer A for 120 min at the same flow rate. The column was then washed isocratically in Buffer A for 120 min.
# The active fractions were combined, concentrated to 10 ml using an Amicon stirred cell with a YM-10 membrane and then applied to a MonoS cation exchange column (1.0×10 cm) that had been equilibrated in Buffer A. The sample was loaded at a flow rate of 1 ml/min at 25° C. After washing isocratically for 30 min, the protease was eluted using a linear gradient of 0-0.45M aqueous sodium chloride in Buffer A over 40 min. The column was washed isocratically in Buffer A containing 0.45M aqueous sodium chloride for 30 minutes.
# The active fractions were combined and concentrated to 200 microliters using an Amicon stirred cell and a YM-10 membrane and then the protease was applied to a Superose 6 size exclusion column equilibrated in Buffer A containing 0.1M aqueous sodium chloride.
# [1] = normalized to positive control (=1.0), * = a calculated average
SMILES,IC50 [1] [µM],Fluorescence Assay IC50 [1] [µg/mL],further results
"CC(C)(C)NC(=O)c1ccccc1C[C@@H](O)[C@H](CSc1ccc2ccccc2c1)NC(=O)c1cccc2c1CCNC2 (relative stereo) [Example 58, [2′R-(2′R*,3′S*)]-N-t-Butyl-2-[2′-hydroxy-3′-naphth-2-ylthiomethyl-4′-aza-5′-oxo-5′-(1″,2″,3″,4″-tetrahydroisoquinolin-5″-yl)pentyl] benzamide]",0.309,,
"Cc1c(O)cccc1C(=O)N[C@@H](Cc1ccccc1)[C@H](O)CN1CCCC[C@H]1C(=O)NC(C)(C)C (relative stereo) [Example 6, [2S-(2R*,2′S*,3′R*)]-1-[2′-Hydroxy-3′-phenylmethyl-4′-aza-5′-oxo-5′-(2″methyl-3″-hydroxyphenyl)pentyl]piperidine-2-N-t-butylcarboxamide]",,,Fluorescence Assay IC50 in ng/mL [1]: 513* ng/mL
"CC(C)(C)NC(=O)[C@@H]1C[C@@H]2CCCC[C@@H]2CN1C[C@@H](O)[C@H](Cc1ccccc1)NC(=O)c1ccsc1 (relative stereo) [Example 87, [3S-(3R*, 4aR*, 8aR*, 2′S*, 3′R*)]-2-[2′-Hydroxy-3′-phenylmethyl-4′-aza-5′-oxo-5′-(thieno-3″-yl)pentyl]-decahydroisoquinoline-3-N-t-butyl carboxamide]",,,"Pandex IC50 (given as % at concentration) (at 1,000 ng/ml): 25%"
"CNc1cccc(C(=O)N[C@H](CSc2ccc3ccccc3c2)[C@H](O)Cc2ccccc2C(=O)NC(C)(C)C)c1C (relative stereo) [Example 43, [2′R-(2′R*,3′S*)]-N-t-Butyl-2-[2′-hydroxy-3′-naphth-2-ylthiomethyl-4′-aza-5′-oxo-5′-(2″-methyl-3″N(methyl)aminophenyl)pentyl] benzamide]",,0.54,
"CC(C)(C)NC(=O)[C@@H]1C[C@@H]2CCCC[C@@H]2CN1C[C@@H](O)[C@H](CSc1ccccc1)NC(=O)[C@H]1CS(=O)(=O)CN1 (relative stereo) [[3S-(3R*, 4aR*, 8aR*, 2′S*, 3′S*, 4″S)]-2-[2′-Hydroxy-3′-phenylthiomethyl-4′-aza-5′-oxo-5′-(thiazolino-4″-yl-1″,1″-dioxide)pentyl]-decahydroisoquinoline-3-N-t-butyl carboxamide]",,,"Pandex IC50 (value as run, 35B value of the same run in footnote or parentheses): 0.244 µg/mL"
"Cc1ccc(CO)cc1C(=O)N[C@@H](Cc1ccccc1)[C@H](O)Cc1ccccc1C(=O)NC(C)(C)C (relative stereo) [Example 41, [2′R-(2′R*,3′S*)]-N-t-Butyl-2-[2′-hydroxy-3′-phenylmethyl-4′-aza-5′-oxo-5′-(2″methyl-5″-hydroxymethylphenyl)pentyl] benzamide]",,0.006,
"Cc1ccc(O)cc1C(=O)N[C@H](CSc1ccc2ccccc2c1)[C@H](O)Cc1ccccc1C(=O)NC(C)(C)C (relative stereo) [Example 72, [2′R-(2′R*,3′S*)]-N-t-Butyl-2-[2′-hydroxy-3′-naphth-2-ylthiomethyl-4′-aza-5′-oxo-5′-(2″-methyl-5″-hydroxyphenyl)pentyl] benzamide]",,0.63,
"CC(C)(C)NC(=O)c1ccccc1C[C@@H](O)[C@@H](CSc1ccc2ccccc2c1)NC(=O)c1cccc(O)c1Cl (relative stereo) [Example 56, [2′R-(2′R*,3′S*)]-N-t-Butyl-2-[2′-hydroxy-3′-naphth-2-ylthiomethyl-4′-aza-5′-oxo-5′-(2″-chloro-3″-hydroxyphenyl)pentyl] benzamide]",,0.094,
"COc1cccc(C(=O)NC(Cc2ccccc2)C(O)CN2CC3CCCCC3CC2C(=O)NC(C)(C)C)c1C (stereo not drawn) [Example 13, [3S-(3R*,4aR*,8aR*,2′S*,3′R*)]-2-[2′-Hydroxy-3′-phenylmethyl-4′-aza-5′-oxo-5′-(2″-methyl-3″-methoxyphenyl)pentyl] decahydroisoquinoline-3-N-t-butylcarboxamide]",0.629,,
"Cc1c(O)cccc1C(=O)N[C@@H](Cc1ccccc1)[C@H](O)Cc1ccccc1C(=O)NC(C)(C)C [Example 40, [2R′-(2R′*,3′S*)]-N-t-Butyl-2-[2′-hydroxy-3′-phenylmethyl-4′-aza-5′-oxo-5′-(2″methyl-3″-hydroxyphenyl)pentyl]benzamide]",0.0211,,
